What was measured:
[1] = system: COLO205 colon adenocarcinoma cells (B-Raf V600E mutation); test: COLO205 cell growth inhibition (ATPlite); format: cell-based; settings: Homo sapiens, COLO 205, 72 h, 3 days
Procedure, shortened: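 Cells treated for 3 days at 37 °C, 5% CO2 with an 8-point 1:3 dilution series, top final concentration 10 μM, DMSO control. ATPlite luminescence used as a measure of cell number; IC50 from reading versus concentration.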

[2] = system: IPC-298 human melanoma cell line that expresses activated NRAS; test: IPC-298_P-ERK cell activation assay (phosphorylated ERK, AlphaScreen); format: cell-based; settings: 1 h, IPC-298 cells, P-ERK activation, compound for one hour
Protocol: B9 is a squamous cell carcinoma cell line expressing activated HRAS that was isolated from a DMBA/TPA-induced mouse model of skin carcinogenesis (Stoler, et al. The Journal of Cell Biology, 1993, 122(5), 1103-17). IPC-298 is a human melanoma cell line that expresses activated NRAS (Aubert, et al. International Journal of Cancer, 1993, 54(5), 784-92). To determine whether compounds induce phosphorylated ERK and MEK, cells are plated in a 96-well dish and treated with an 8-point titration of compound for one hour at 37° C. The media is then removed and the cells are incubated with lysis buffer containing protease and phosphatase inhibitors. Phosphorylated ERK and MEK in the resulting lysates is detected using AlphaScreen™ technology. To detect phosphorylated ERK, cell lysates are incubated with streptavidin-coated donor beads, anti-mouse IgG acceptor beads, a biotinylated anti-ERK1/2 rabbit antibody, and a mouse antibody that recognizes ERK1/2 only when it is phosphorylated on Thr202 and Tyr204. The biotinylated ERK1/2 antibody will bind to both the streptavidin-coated donor beads and to ERK1/2 (regardless of its phosphorylation state), and the phospho-ERK1/2 antibody will bind to the acceptor beads and to ERK1/2 that is phosphorylated at Thr202/Tyr204. Excitation of the beads with laser light at 680 nm produces singlet oxygen, which is rapidly quenched unless the beads are in close proximity. When ERK is phosphorylated, both antibodies can bind the same protein, bringing the donor and acceptor beads into close proximity, producing a signal that can be measured at 580 nm. MEK phosphorylation is detected using a similar approach, only with antibodies directed against total MEK1/2 and MEK1/2 that is phosphorylated at Ser217 and Ser221.

B-Raf V600E = B-Raf V600E (Homo sapiens (Human), UniProt P15056, V600E); test: B-Raf V600E kinase biochemical activity assay (AlphaScreen, biotin-MEK1 substrate); settings: 100 μM ATP
B-Raf V600E, sequence (P15056 whole entry V600E): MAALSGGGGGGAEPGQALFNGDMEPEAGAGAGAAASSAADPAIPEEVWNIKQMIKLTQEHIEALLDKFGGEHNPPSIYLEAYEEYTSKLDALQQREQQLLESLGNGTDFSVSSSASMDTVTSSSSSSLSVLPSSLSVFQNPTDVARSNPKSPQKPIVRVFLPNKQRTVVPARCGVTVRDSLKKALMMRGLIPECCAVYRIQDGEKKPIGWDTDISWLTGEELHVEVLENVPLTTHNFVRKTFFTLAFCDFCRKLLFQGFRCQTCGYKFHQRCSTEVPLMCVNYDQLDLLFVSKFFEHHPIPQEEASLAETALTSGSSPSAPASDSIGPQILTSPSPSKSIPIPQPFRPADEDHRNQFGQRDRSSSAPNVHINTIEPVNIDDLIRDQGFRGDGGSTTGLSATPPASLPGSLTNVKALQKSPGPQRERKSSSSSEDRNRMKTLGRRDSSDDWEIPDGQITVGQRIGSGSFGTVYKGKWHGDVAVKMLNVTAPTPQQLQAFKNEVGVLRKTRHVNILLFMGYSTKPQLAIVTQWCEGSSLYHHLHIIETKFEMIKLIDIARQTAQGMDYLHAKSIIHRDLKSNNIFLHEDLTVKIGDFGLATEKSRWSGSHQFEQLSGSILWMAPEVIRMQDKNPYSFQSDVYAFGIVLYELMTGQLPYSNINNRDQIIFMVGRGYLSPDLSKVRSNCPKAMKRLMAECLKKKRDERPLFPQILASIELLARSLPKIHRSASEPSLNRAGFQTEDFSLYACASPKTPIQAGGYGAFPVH
Procedure, shortened: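 IC50 was derived from AlphaScreen signal (anti-phospho-MEK1/2 antibody with streptavidin donor and Protein A acceptor beads, 3 h) across 8 compound concentrations. The kinase step ran 45 min at room temperature: 0.1 ng B-Raf V600E, 100 nM biotin-MEK1, 100 μM final ATP, pH 7.0 HEPES with MgCl2/MnCl2.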

[3] = system: A375 melanoma cells (B-Raf V600E mutation); test: A375 (A375_P-ERK) cell activity / cell growth inhibition; format: cell-based; settings: Homo sapiens, A-375
Protocol: Compounds are assessed in a variety of cell based assays.
On day 1, cells are counted, then centrifuged in a conical tube for 5 minutes at 1000 rpm.
On day 2, compound at a maximum concentration of 5 mM is serially diluted 1:3 (e.g. 10 μL with 30 μL dimethyl sulfoxide) for a total of 8 point titration with DMSO as a control. A 1 μL aliquot of each dilution point and control is added to 249 μL growth media and 50 μL is added to a well containing cells, providing 10 μM compound at the maximum concentration point. The cells are incubated for 3 days at 37° C. in 5% CO2.
ATPlite is added 25 μL to each well, shake for 2 minutes, and the cells are incubated at room temperature for 10 minutes, then luminescence is read on Safire reader. The measured luminescence correlates directly with cell number, such that the reading as a function of compound concentration is used to determine the IC50 value.

SMILES	IC50 [1]	EC50 [2]	IC50 (B-Raf V600E)	IC50 [3]
CCN(C)S(=O)(=O)Nc1cccc(C(=O)c2c[nH]c3ncc(-c4cnc(C5CC5)nc4)cc23)c1F [Compound P-0058, 5-(2-cyclopropylpyrimidin-5-yl)-3-[3-[[ethyl(methyl)sulfamoyl]amino]-2-fluoro-benzoyl]-1H-pyrrolo[2,3-b]pyridine]	< 1 µM	> 10 µM	< 0.1 µM	–
CCN(C)S(=O)(=O)Nc1cccc(C(=O)c2c[nH]c3ncc(-c4ccc(C(F)(F)F)nc4)cc23)c1F [Compound P-0059, 3-[3-[[ethyl(methyl)sulfamoyl]amino]-2-fluoro-benzoyl]-5-[6-(trifluoromethyl)-3-pyridyl]-1H-pyrrolo[2,3-b]pyridine]	< 1 µM	> 10 µM	< 0.1 µM	–
CCN(C)S(=O)(=O)Nc1cccc(C(=O)c2c[nH]c3ncc(-c4ccc(C#N)c(OC)c4)cc23)c1F [Compound P-0060, 5-(4-cyano-3-methoxy-phenyl)-3-[3-[[ethyl(methyl)sulfamoyl]amino]-2-fluoro-benzoyl]-1H-pyrrolo[2,3-b]pyridine]	< 1 µM	> 2 µM	< 0.1 µM	–
O=C(c1cccc(NS(=O)(=O)N2CCCC2)c1F)c1c[nH]c2ncc(-c3ccc(F)cc3)cc12 [Compound P-0062, N-[2-fluoro-3-[5-(4-fluorophenyl)-1H-pyrrolo[2,3-b]pyridine-3-carbonyl]phenyl]pyrrolidine-1-sulfonamide]	< 1 µM	> 10 µM	< 0.1 µM	–
O=C(c1cccc(NS(=O)(=O)N2CCCC2)c1F)c1c[nH]c2ncc(-c3ccccc3)cc12 [Compound P-0063, N-[2-fluoro-3-(5-phenyl-1H-pyrrolo[2,3-b]pyridine-3-carbonyl)phenyl]pyrrolidine-1-sulfonamide]	< 1 µM	> 10 µM	< 0.1 µM	–
CN(C)S(=O)(=O)Nc1cccc(C(=O)c2c[nH]c3ncc(-c4cnc(NC5CC5)nc4)cc23)c1F [Compound P-0064, 5-[2-(cyclopropylamino)pyrimidin-5-yl]-3-[3-(dimethylsulfamoylamino)-2-fluoro-benzoyl]-1H-pyrrolo[2,3-b]pyridine]	< 1 µM	> 10 µM	< 0.1 µM	–
CC(C)N(C)S(=O)(=O)Nc1cccc(C(=O)c2c[nH]c3ncc(-c4cnc(C5CC5)nc4)cc23)c1F [Compound P-0233, 5-(2-cyclopropylpyrimidin-5-yl)-3-[2-fluoro-3-[[isopropyl(methyl)sulfamoyl]amino]benzoyl]-1H-pyrrolo[2,3-b]pyridine]	> 1 µM	–	< 0.1 µM	> 1 µM
CC(C)(O)c1nc(-c2cnc3[nH]cc(C(=O)c4c(F)ccc(NS(=O)(=O)N5CCCC5)c4F)c3c2)cs1 [Compound P-0265, N-[2,4-difluoro-3-[5-[2-(1-hydroxy-1-methyl-ethyl)thiazol-4-yl]-1H-pyrrolo[2,3-b]pyridine-3-carbonyl]phenyl]pyrrolidine-1-sulfonamide]	< 1 µM	> 2 µM	< 0.1 µM	–
O=C(c1c(F)ccc(NS(=O)(=O)N2CCCC2)c1F)c1c[nH]c2ncc(-c3ccnc(C4CC4)c3)cc12 [Compound P-0295, N-[3-[5-(2-cyclopropyl-4-pyridyl)-1H-pyrrolo[2,3-b]pyridine-3-carbonyl]-2,4-difluoro-phenyl]pyrrolidine-1-sulfonamide]	< 1 µM	> 2 µM	< 0.1 µM	–
CNS(=O)(=O)Nc1ccc(F)c(C(=O)c2c[nH]c3ncc(-c4cnc(C5CC5)nc4)cc23)c1F [Compound P-0334, [5-(2-cyclopropylpyrimidin-5-yl)-1H-pyrrolo[2,3-b]pyridin-3-yl]-[2,6-difluoro-3-(methylsulfamoylamino)phenyl]methanone]	> 1 µM	> 2 µM	< 0.1 µM	–

From patent publication US20230277534A1 (Plexxikon Inc., priority 2011, published 2023)
